From patent US12122778B2, “Activating pyruvate kinase R” (Novo Nordisk Health Care AG, priority 2018, dated 2024)

Columns and labels:
PKR(R510Q) = PKR(R510Q) (Homo sapiens, UniProt P30613, R510Q); test: Luminescence Biochemical Assay (Kinase Glo Plus), PKR R510Q mutant; settings: without FBP; for activation at 1.54 µM: 1.54 μM compound, read-out: AC50 LUM KGP woFBP % Fold@1.54 μM mean; for AC50: read-out: AC50 LUM KGP woFBP AC50 μM gmean; for Emax: read-out: AC50 LUM KGP woFBP MAX % FOLD mean
Procedure: (§1) In some embodiments, a PKR Activating Compound can have: (1) an AC50 value of less than 0.1 μM (e.g., compounds with AC50 values of “+++” in Table 13), 0.1-1.0 μM (e.g., compounds with AC50 values of “++” in Table 13), or 1.01-40 μM (e.g., compounds with AC50 values of “+” in Table 13); (2) a MAX % Fold of 75%-250%, 250-500%, or 75%-500%; and/or (3) a % Fold@1.54 μM of 75%-250%, 250-500%, or 75%-500%. In some embodiments, a PKR Activating Compound has (1) an AC50 value of less than 1.0 μM; (2) a MAX % Fold of 75%-500%; and/or (3) a % Fold@1.54 μM of 75%-500%.
(§2) The phosphorylation of Adenosine-5′-diphosphate (ADP) by various mutants of PKR was determined by the Kinase Glo Plus Assay (Promega) in the presence or absence of FBP [D-Fructose-1,6-diphosphate; BOC Sciences, CAS: 81028-91-3] as follows. Unless otherwise indicated, all reagents were purchased from Sigma-Aldrich. All reagents were prepared in buffer containing 50 mM Tris-HCl, 100 mM KCl, 5 mM MgCl2, and 0.01% Triton X100, 0.03% BSA, and 1 mM DTT. Enzyme and PEP [Phospho(enol) pyruvic acid] were added at 2× to all wells of an assay-ready plate containing serial dilutions of test compounds or DMSO vehicle. Final enzyme concentrations for PKR(wt), PKR(R510Q), and PKR(G332S) were 0.8 nM, 0.8 nM, and 10 nM respectively. Final PEP concentration was 100 μM. The Enzyme/PEP mixture was incubated with compounds for 30 minutes at RT before the assay was initiated with the addition of 2×ADP [Adenosine-5′-diphosphate] and KinaseGloPlus. Final concentration of ADP was 100 μM. […] For assays containing FBP, that reagent is added at 30 μM upon reaction initiation. Reactions were allowed to progress for 45 minutes at RT until luminescence was recorded by the BMG PHERAstar FS Multilabel Reader. All compounds were tested in triplicate at concentrations ranging from 42.5 μM to 2.2 nM in 0.83% DMSO.
(§3) Luminescence values were converted to % Fold increase by normalizing to the average of the DMSO control and multiplying by 100. Max, min, slope and AC50 were determined by the standard four parameter fit algorithm of ActivityBase XE Runner. Compounds were evaluated with three parameters—AC50, MAX % Fold, and % Fold@1.54 μM (FIG. 1). The AC50 value for a compound is the concentration (μM) corresponding to the midway between the maximum and minimum values of the four parameter logistic curve fit (i.e., at which the % fold increase along the four parameter logistic curve fit is halfway between MAX % Fold and MIN % Fold (% Fold Midpoint)), MAX % Fold is the highest fold increase observed at any concentration of compound, and % Fold@1.54 μM is the fold increase at a compound concentration of 1.54 μM. The parameter % Fold@1.54 μM was selected to capture elements of both the AC50 and MAX % Fold and to provide a ranking based on both potency and effect. The compound concentration of 1.54 μM was chosen as one that can optimally differentiate the set of compounds based on the range of activities observed.
(§4) As set forth in Table 13 below, AC50 values (columns A, D, G) are defined as follows: ≤0.1 μM (+++); >0.1 μM and ≤1.0 μM (++); >1.0 μM and ≤40 μM (+); >40 μM (0). Max % FOLD values (columns B, E, H) are defined as follows: ≤75% (+); >75% and ≤250% (++); >250% and ≤500% (+++). % Fold@1.54 μM values (columns C, F, J) are defined as follows: ≤75% (+); >75% and ≤250% (++); >250% and ≤50000 (+++).

PKR(wt) = PKR(wt) (Homo sapiens, UniProt P30613); test: Luminescence Biochemical Assay (Kinase Glo Plus), wild type PKR; settings: without FBP; for activation at 1.54 µM: 1.54 μM compound, read-out: AC50 LUM KGP woFBP % Fold@1.54 μM mean; for AC50: read-out: AC50 LUM KGP woFBP AC50 μM gmean; for Emax: read-out: AC50 LUM KGP woFBP MAX % FOLD mean
PKR(wt), sequence (P30613 whole entry): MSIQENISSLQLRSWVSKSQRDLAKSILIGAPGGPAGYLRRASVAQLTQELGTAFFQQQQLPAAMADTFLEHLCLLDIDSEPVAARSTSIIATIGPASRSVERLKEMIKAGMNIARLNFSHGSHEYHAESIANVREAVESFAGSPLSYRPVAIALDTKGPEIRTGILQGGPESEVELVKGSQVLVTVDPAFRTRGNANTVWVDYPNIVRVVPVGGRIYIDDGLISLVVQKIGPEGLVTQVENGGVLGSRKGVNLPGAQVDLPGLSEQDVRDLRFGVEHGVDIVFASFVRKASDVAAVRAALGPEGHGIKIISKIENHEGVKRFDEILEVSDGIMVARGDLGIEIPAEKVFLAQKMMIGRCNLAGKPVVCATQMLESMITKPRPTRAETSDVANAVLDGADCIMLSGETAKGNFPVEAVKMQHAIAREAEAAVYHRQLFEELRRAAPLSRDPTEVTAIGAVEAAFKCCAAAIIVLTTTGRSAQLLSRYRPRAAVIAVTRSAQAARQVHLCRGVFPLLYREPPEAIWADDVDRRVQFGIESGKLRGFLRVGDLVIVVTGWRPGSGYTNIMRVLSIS
Procedure: as §1, §2, §3, §4

PKR(R510Q), sequence (P30613 whole entry R510Q): as the sequence (P30613 whole entry) above, with R510Q counted along it

| SMILES | activation at 1.54 µM (PKR(R510Q)) | AC50 (PKR(R510Q)) | Emax (PKR(R510Q)) | activation at 1.54 µM (PKR(wt)) | AC50 (PKR(wt)) | Emax (PKR(wt)) |
| --- | --- | --- | --- | --- | --- | --- |
| O=C(NCc1ncco1)N1CC2=C(C1)CN(S(=O)(=O)c1ccc3ncsc3c1)C2 [Example 21-29, 5-(1,3-Benzothiazole-6-sulfonyl)-N-(1,3-oxazol-2-ylmethyl)-1H,2H,3H,4H,5H,6H-pyrrolo[3,4-c]pyrrole-2-carboxamide] | 75 to 250% | 0.1 to 1 µM | 75 to 250% | 250 to 50000% | 0.1 to 1 µM | 250 to 500% |
| Cc1cccc(CNC(=O)N2CC3=C(C2)CN(S(=O)(=O)c2ccc4ncsc4c2)C3)n1 [Example 21-32, 5-(1,3-Benzothiazole-6-sulfonyl)-N-[(6-methylpyridin-2-yl)methyl]-1H,2H,3H,4H,5H,6H-pyrrolo[3,4-c]pyrrole-2-carboxamide] | 250 to 50000% | 0.1 to 1 µM | 250 to 500% | 250 to 50000% | 0.1 to 1 µM | 250 to 500% |
| O=C([C@H](O)c1ccccc1)N1CC2=C(C1)CN(S(=O)(=O)c1ccc(Cl)s1)C2 [Example 18-55, (2R)-1-{5-[(5-chlorothiophen-2-yl)sulfonyl]-1H,2H,3H,4H,5H,6H-pyrrolo[3,4-c]pyrrol-2-yl}-2-hydroxy-2-phenylethan-1-one] | 75 to 250% | 0.1 to 1 µM | 250 to 500% | 75 to 250% | 0.1 to 1 µM | 75 to 250% |
| COc1ccc(CNC(=O)N2CC3=C(C2)CN(S(=O)(=O)c2ccc(OC)c(OC)c2)C3)cc1 [Example 20-31, 5-(3,4-Dimethoxybenzenesulfonyl)-N-[(4-methoxyphenyl)methyl]-1H,2H,3H,4H,5H,6H-pyrrolo[3,4-c]pyrrole-2-carboxamide] | 75 to 250% | 1 to 40 µM | 75 to 250% |  |  |  |
| COc1ccc(CNC(=O)N2CC3=C(C2)CN(S(=O)(=O)c2cccc(F)c2)C3)cc1 [Example 20-7, 5-(3-Fluorobenzenesulfonyl)-N-[(4-methoxyphenyl)methyl]-1H,2H,3H,4H,5H,6H-pyrrolo[3,4-c]pyrrole-2-carboxamide] | 250 to 50000% | 0.1 to 1 µM | 250 to 500% |  |  |  |
| COc1ccc(CNC(=O)N2CC3=C(C2)CN(S(=O)(=O)c2cccnc2)C3)cc1 [Example 20-2, N-[(4-methoxyphenyl)methyl]-5-(pyridine-3-sulfonyl)-1H,2H,3H,4H,5H,6H-pyrrolo[3,4-c]pyrrole-2-carboxamide] |  |  |  | 75 to 250% | 0.1 to 1 µM | 250 to 500% |
| Cc1ccc(C(C)NC(=O)N2CC3=C(C2)CN(S(=O)(=O)c2ccc(OC(F)F)cc2)C3)s1 (stereo not drawn) [Example 21-7, 5-[4-(Difluoromethoxy)benzenesulfonyl]-N-[1-(5-methylthiophen-2-yl)ethyl]-1H,2H,3H,4H,5H,6H-pyrrolo[3,4-c]pyrrole-2-carboxamide] |  |  |  | 75 to 250% | 1 to 40 µM | 250 to 500% |
| C[C@@H](C(=O)N1CC2=C(C1)CN(S(=O)(=O)c1ccc(Cl)s1)C2)c1ccccc1 [Example 19-1, (2R)-1-{5-[(5-chlorothiophen-2-yl)sulfonyl]-1H,2H,3H,4H,5H,6H-pyrrolo[3,4-c]pyrrol-2-yl}-2-phenylpropan-1-one] | 75 to 250% | 1 to 40 µM | 75 to 250% |  |  |  |
| O=C(c1ccccn1)N1CC2=C(C1)CN(S(=O)(=O)c1ccc3occc3c1)C2 [Example 18-83, 2-[5-(1-Benzofuran-5-sulfonyl)-1H,2H,3H,4H,5H,6H-pyrrolo[3,4-c]pyrrole-2-carbonyl]pyridine] |  |  |  | 75 to 250% | 1 to 40 µM | 75 to 250% |
| Cc1nn(C)c(Cl)c1S(=O)(=O)N1CC2=C(CN(C(=O)[C@H](C)c3ccccc3)C2)C1 [Example 19-2, (2R)-1-{5-[(5-chloro-1,3-dimethyl-1H-pyrazol-4-yl)sulfonyl]-1H,2H,3H,4H,5H,6H-pyrrolo[3,4-c]pyrrol-2-yl}-2-phenylpropan-1-one] | 75 to 250% | 1 to 40 µM | 75 to 250% |  |  |  |
| O=C(NC1CCOC1)N1CC2=C(C1)CN(S(=O)(=O)c1ccc3occc3c1)C2 (stereo not drawn) [Example 3-2, 5-(Benzofuran-5-ylsulfonyl)-N-(tetrahydrofuran-3-yl)-3,4,5,6-tetrahydropyrrolo[3,4-c]pyrrole-2(1H)-carboxamide] |  |  |  | 75 to 250% | 0.1 to 1 µM | 250 to 500% |
| O=C(NCC1CCCO1)N1CC2=C(C1)CN(S(=O)(=O)c1ccc3occc3c1)C2 (stereo not drawn) [Example 3-1, 5-(Benzofuran-5-ylsulfonyl)-N-((tetrahydrofuran-2-yl)methyl)-3,4,5,6-tetrahydropyrrolo[3,4-c]pyrrole-2(1H)-carboxamide] |  |  |  | 75 to 250% | 0.1 to 1 µM | 75 to 250% |
| O=C(N1CC2=C(C1)CN(S(=O)(=O)c1ccc3occc3c1)C2)C1(O)CC1 [Example 1-4, (5-(Benzofuran-5-ylsulfonyl)-3,4,5,6-tetrahydropyrrolo[3,4-c]pyrrol-2(1H)-yl)(1-hydroxycyclopropyl)methanone] |  |  |  | 75 to 250% | 0.1 to 1 µM | 250 to 500% |
| O=C([C@H](O)c1ccccc1)N1CC2=C(C1)CN(S(=O)(=O)c1cc(F)ccc1Cl)C2 [Example 18-57, (2R)-1-[5-(2-chloro-5-fluorobenzenesulfonyl)-1H,2H,3H,4H,5H,6H-pyrrolo[3,4-c]pyrrol-2-yl]-2-hydroxy-2-phenylethan-1-one] |  |  |  | 75 to 250% | 0.1 to 1 µM | 75 to 250% |
| CN1CCOc2ccc(S(=O)(=O)N3CC4=C(CN(C(=O)C5CCCC5)C4)C3)cc21 [Example 18-78, 6-({5-Cyclopentanecarbonyl-1H,2H,3H,4H,5H,6H-pyrrolo[3,4-c]pyrrol-2-yl}sulfonyl)-4-methyl-3,4-dihydro-2H-1,4-benzoxazine] |  |  |  | 75 to 250% | 1 to 40 µM | 75 to 250% |
| Cc1cc(C(C)NC(=O)N2CC3=C(C2)CN(S(=O)(=O)c2ccc(OC(F)F)cc2)C3)c(C)o1 (stereo not drawn) [Example 21-4, 5-[4-(Difluoromethoxy)benzenesulfonyl]-N-[1-(2,5-dimethylfuran-3-yl)ethyl]-1H,2H,3H,4H,5H,6H-pyrrolo[3,4-c]pyrrole-2-carboxamide] |  |  |  | 75 to 250% | 1 to 40 µM | 250 to 500% |
| CS(=O)(=O)NCC(=O)N1CC2=C(C1)CN(S(=O)(=O)c1ccc3occc3c1)C2 [Example 1-1, N-(2-(5-(benzofuran-5-ylsulfonyl)-3,4,5,6-tetrahydropyrrolo[3,4-c]pyrrol-2(1H)-yl)-2-oxoethyl)methanesulfonamide] |  |  |  | 75 to 250% | 0.1 to 1 µM | 75 to 250% |
| Cc1ccc(C(C)NC(=O)N2CC3=C(C2)CN(S(=O)(=O)c2ccc(OC(F)F)cc2)C3)o1 (stereo not drawn) [Example 21-3, 5-[4-(Difluoromethoxy)benzenesulfonyl]-N-[1-(5-methylfuran-2-yl)ethyl]-1H,2H,3H,4H,5H,6H-pyrrolo[3,4-c]pyrrole-2-carboxamide] |  |  |  | 75 to 250% | 1 to 40 µM | 250 to 500% |
| O=C(NCc1ccco1)N1CC2=C(C1)CN(S(=O)(=O)c1ccc3ncsc3c1)C2 [Example 21-1, 5-(Benzo[d]thiazol-6-ylsulfonyl)-N-(furan-2-ylmethyl)-3,4,5,6-tetrahydropyrrolo[3,4-c]pyrrole-2(1H)-carboxamide] |  |  |  | 250 to 50000% | ≤ 0.1 µM | 250 to 500% |
